In publication PMC4810081, “Venetoclax (ABT-199) Might Act as a Perpetrator in Pharmacokinetic Drug–Drug Interactions” (Pharmaceutics, 2016):

Assays:
[1] = Growth inhibition assay in MDCKII-MRP2 cells; type: cell-based; conditions: dog, MDCKII-MRP2 cells (MRP2 over-expressing)
Procedure: MDCKII cells. […] Moreover, MDCKII-BCRP cells were used to assess BCRP inhibition by venetoclax. MDCKII over-expressing cell lines were kindly provided by A. H. Schinkel and P. Borst (Amsterdam, The Netherlands). The parental cell line MDCKII (available at ATCC, Manassas, VA, USA) was used as a control. The cells were cultured in Dulbecco’s Modified Eagle’s Medium (DMEM) containing 10% FCS, 2 mM of glutamine, 100 U/mL of penicillin, and 100 µg/mL of streptomycin sulfate. Growth inhibition assays in LS180 cells were conducted to determine suitable maximum concentrations for the induction assay without profound antiproliferative effects. Proliferation was quantified by crystal violet staining of the surviving cells as described previously. […] Growth inhibition assays in MDCKII, and their MRP2 or BCRP over-expressing counterparts ([…], MDCKII-BCRP) and in LLC-PK1 and the corresponding P-gp over-expressing cell line L-MDR1 were conducted to evaluate whether venetoclax sustains its efficacy in MDR cell lines.

ABCC2 = test: Induction assay, ABCC2 mRNA by real-time RT-PCR in LS180 cells; type: in vitro ADME, human; conditions: four days, 0.01–10 µM
Procedure: (§1) LS180 cells. The human colon adenocarcinoma cell line LS180 (available at ATCC, Manassas, VA, USA) is one of the standard models for investigating pregnane X receptor (PXR) and aryl hydrocarbon receptor (AhR) mediated induction and was thus used for induction experiments. Cells were cultured under standard cell culture conditions with DMEM supplemented with 10% FCS, 2 mM of glutamine, 100 U/mL of penicillin, 100 µg/mL of streptomycin sulfate, and 0.1 mM of nonessential amino acids.
(§2) For the induction experiments, LS180 cells were seeded in 75 cm^2 culturing flasks and incubated for three days. […]
(§3) RNA was isolated using the GenElute™ Mammalian Total RNA Miniprep Kit, and cDNA was synthesized with the RevertAid™ H Minus First Strand cDNA Synthesis Kit according to the manufacturer's instructions. mRNA expression was quantified by real-time RT-PCR with the LightCycler® 480 (Roche Applied Science, Mannheim, Germany) as described previously. […] Data were evaluated via calibrator-normalized relative quantification with efficiency correction using the LightCycler® 480 software version 1.5 (Roche Applied Science, Mannheim, Germany). […] The following target genes were quantified: CYP1A1, CYP1A2, CYP3A4, ABCB1, ABCC2, ABCG2, SLCO1B1 (coding for OATP1B1), UDP-glucuronosyltransferase 1A3 (UGT1A3), and UGT1A9.

CYP1A1 = test: Induction assay, CYP1A1 mRNA by real-time RT-PCR in LS180 cells; type: in vitro ADME, human; conditions: four days, 10 µM
Procedure: as §1, §2, §3

[2] = Intestinal concentration by FDA formula; conditions: after a dose of 250 mg, according to FDA formula (dose/250 mL)
Procedure: Thus, the question of whether these effects will also play a role in the clinical situation arises. Therapeutic plasma concentrations of venetoclax reach about 5 µM [3, 34, 35], a similar range to concentrations inhibiting drug transporters and CYP in vitro. […] Thus, even the moderate inhibition of P-gp by venetoclax might be relevant and should be tested in vivo.

MDCKII = test: Growth inhibition assay in MDCKII cells; type: cell-based; conditions: Canis lupus familiaris, MDCK-II; MDCKII parental cells
From the text: MDCKII cells. The transporter over-expressing cell lines MDCKII-MDR1 [5], MDCKII-MRP2 [6], and MDCKII-BCRP [7] and the corresponding parental cell line MDCKII were used to assess the sensitivity of cells with and without P-gp, multidrug resistance-associated protein 2 (MRP2/ABCC2), or BCRP expression. Moreover, MDCKII-BCRP cells were used to assess BCRP inhibition by venetoclax. MDCKII over-expressing cell lines were kindly provided by A. H. Schinkel and P. Borst (Amsterdam, The Netherlands). The parental cell line MDCKII (available at ATCC, Manassas, VA, USA) was used as a control. The cells were cultured in Dulbecco’s Modified Eagle’s Medium (DMEM) containing 10% FCS, 2 mM of glutamine, 100 U/mL of penicillin, and 100 µg/mL of streptomycin sulfate.
Growth inhibition assays in LS180 cells were conducted to determine suitable maximum concentrations for the induction assay without profound antiproliferative effects. Proliferation was quantified by crystal violet staining of the surviving cells as described previously. Each experiment was performed at least in triplicate with n = 8 wells for each concentration (0.1–100 µM). The IC20 for proliferation inhibition by venetoclax was 8.4 ± 1.0 µM; thus, the maximum concentration for the induction assay was set to 10 µM, ensuring that about 80% of the cells will survive. […]

ABCG2 = test: Induction assay, ABCG2 mRNA by real-time RT-PCR in LS180 cells; type: in vitro ADME, human; conditions: four days, 0.01–10 µM
Procedure: as §1, §2, §3

CYP2B6 = target: T1, CYP2B6 (Homo sapiens, UniProt P20813); test: CYP2B6 inhibition, CYP2B6/EFC High Throughput Inhibitor Screening Kit; type: in vitro ADME
T1 construct: purchased Becton Dickinson Biosciences (Heidelberg, Germany)
T1 sequence (P20813 whole entry): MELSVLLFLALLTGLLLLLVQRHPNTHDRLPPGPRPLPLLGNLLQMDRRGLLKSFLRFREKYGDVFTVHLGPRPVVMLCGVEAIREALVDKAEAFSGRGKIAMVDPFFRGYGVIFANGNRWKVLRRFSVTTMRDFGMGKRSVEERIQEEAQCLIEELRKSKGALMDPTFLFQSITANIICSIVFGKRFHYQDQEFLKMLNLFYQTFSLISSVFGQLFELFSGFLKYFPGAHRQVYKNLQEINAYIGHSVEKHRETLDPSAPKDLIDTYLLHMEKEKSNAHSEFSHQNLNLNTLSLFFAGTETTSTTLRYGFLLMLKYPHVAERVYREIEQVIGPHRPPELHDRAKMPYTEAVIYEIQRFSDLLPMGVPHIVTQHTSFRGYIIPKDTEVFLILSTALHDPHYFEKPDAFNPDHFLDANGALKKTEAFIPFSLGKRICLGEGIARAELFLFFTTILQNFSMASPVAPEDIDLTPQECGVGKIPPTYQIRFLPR
Procedure: (§4) Inhibition studies for CYP2B6, CYP2D6, CYP2C19 and CYP3A4 were performed with the CYP2B6/EFC, CYP2D6/AMMC, the CYP2C19/CEC, and the CYP3A4/BFC High Throughput Inhibitor Screening Kit according to the manufacturer’s instructions. The kits contain the respective recombinant CYP and fluorogenic substrates, which are blocked dyes emitting a fluorescence signal when cleaved by the enzyme. For testing CYP1A2 inhibition, the P450-Glo CYP1A2 Screening System was used according to the manufacturer’s instructions. The kit contains the luminogenic CYP1A2 substrate luciferin-ME, which is converted by CYP1A2 into luciferin-generating light when incubated with the luciferin detection reagent of the kit. Eight concentrations of venetoclax in duplicates (0.009–20 µM) were tested in the fluorescence assays, and eight concentrations in triplicate (0.05–100 µM) were tested for the luminogenic assay. Each experiment was conducted in triplicate.

CYP3A4 = target: T2, CYP3A4 (Homo sapiens, UniProt P08684); test: CYP3A4 inhibition, CYP3A4/BFC High Throughput Inhibitor Screening Kit; type: in vitro ADME; conditions: recombinant CYP, fluorogenic substrate
T2 construct: purchased Becton Dickinson Biosciences (Heidelberg, Germany)
T2 sequence (P08684 whole entry): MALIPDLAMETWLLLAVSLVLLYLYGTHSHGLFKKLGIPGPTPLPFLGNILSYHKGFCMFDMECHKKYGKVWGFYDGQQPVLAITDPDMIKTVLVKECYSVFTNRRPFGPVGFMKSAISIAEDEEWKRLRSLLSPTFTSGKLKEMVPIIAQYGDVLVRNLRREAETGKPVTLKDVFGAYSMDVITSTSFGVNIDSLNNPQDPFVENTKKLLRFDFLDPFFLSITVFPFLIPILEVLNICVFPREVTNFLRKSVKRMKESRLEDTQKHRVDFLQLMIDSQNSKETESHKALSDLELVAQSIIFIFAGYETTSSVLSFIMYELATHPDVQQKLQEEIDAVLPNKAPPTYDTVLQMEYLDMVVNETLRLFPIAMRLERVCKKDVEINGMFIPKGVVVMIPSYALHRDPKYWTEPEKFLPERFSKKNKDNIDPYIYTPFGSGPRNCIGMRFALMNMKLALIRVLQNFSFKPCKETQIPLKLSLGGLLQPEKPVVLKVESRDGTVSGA
Procedure: as §4

Question: Which IC50 [1] does the source give for CC1(C)CCC(CN2CCN(c3ccc(C(=O)NS(=O)(=O)c4ccc(NCC5CCOCC5)c([N+](=O)[O-])c4)c(Oc4cnc5[nH]ccc5c4)c3)CC2)=C(c2ccc(Cl)cc2)C1 [Venetoclax] here?
Answer: The IC50 was 17.2 ± 1.8 µM.

Question: What about the “mRNA expression of ABCC2” value (ABCC2) of the same compound?
Answer: The value was “unchanged”.

Question: What about the “mRNA expression of CYP1A1” value (CYP1A1) of the same compound?
Answer: Its value is “induced”.

Question: What about the “concentration reached in the intestine” value [2] of the same compound?
Answer: Its value is “about 1 mM”.

Question: And the IC50 (MDCKII)?
Answer: Its IC50 is 15.2 ± 2.4 µM.

Question: What about the “mRNA expression of ABCG2” value (ABCG2) of the same compound?
Answer: Its value is “unchanged”.

Question: And the “increase of CYP2B6 activity” value (CYP2B6; at 20 µM)?
Answer: The value was 1.7 fold.

Question: And the “IC50 CYP2B6 inhibition” value (CYP2B6; recombinant CYP, fluorogenic substrate, 0.009–20 µM tested)?
Answer: The value was “activation”.

Question: What about the IC50 (CYP3A4) of the same compound?
Answer: The IC50 was 7.2 ± 3.2 µM.
